Results as given in US7018613B2, “Preparations for evaluating eliminative ability of stomach” (Otsuka Pharmaceutical Co., Ltd., priority 2000, dated 2006).

Assay: exhalation test (13CO2/12CO2, carbon dioxide gas Δ value) after oral administration to beagle dogs

CC(C)[N+](C)(CCOC(=O)C1c2ccccc2Oc2ccccc21)C(C)C [propantheline]
excretion of labeled carbon dioxide gas in the exhalation in the group receiving propantheline versus untreated group (beagle dogs given the capsule of Example 8 granules after propantheline, n=4): slow compared to that seen in the beagle dogs of the untreated group

O=C([O-])O.[Na+] [sodium hydrogencarbonate solution, sodium hydrogencarbonate]
excretion of labeled carbon dioxide gas from the body, in words (male beagle dogs without propantheline, n=4, FIG. 4): rapidly excreted from the body
time of maximum of the carbon dioxide gas Δ value, in words (male beagle dogs, n=4, control test, 100 mg NaH13CO3, FIG. 4): immediately after administration
